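1) Cells in 96-well plates. 2) Compound, 48 h, 5 concentrations. 3) Linear interpolation between surrounding doses. 4) Unreached endpoint = highest concentration. GI50: concentration for 50% inhibition of growth. TGI denotes the concentration required for complete inhibition of growth.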
How the values were obtained:
Test in all cases: NCI anticancer screen, dose series, 48 h
[1] = test system: PC-3 prostate
[2] = test system: HOP-62 NSCLC
[3] = test system: IGROV1 ovarian
[4] = test system: SK-MEL-28 melanoma
[5] = test system: LOX IMVI melanoma
[6] = test system: UACC-257 melanoma
[7] = test system: K-562 leukemia
[8] = test system: HOP-92 NSCLC
[9] = test system: SF-268 CNS
[10] = test system: KM12 colon
[11] = test system: SNB-19 CNS
[12] = test system: NCI-H460 lung
[13] = test system: 786-0 renal
[14] = test system: SK-MEL-5 melanoma
[15] = test system: HT29 colon
[16] = test system: MDA-MB-435
[17] = test system: OVCAR-8 ovarian
[18] = test system: CAKI-1 renal
[19] = test system: HCT-116 colon
[20] = test system: HCC-2998 colon
[21] = test system: SK-OV-3 ovarian
[22] = test system: MDA-MB-231 breast
[23] = test system: NCI/ADR-RES ovarian
[24] = test system: ACHN renal
[25] = test system: A498 renal
[26] = test system: RXF 393 renal
[27] = test system: TK-10 renal
[28] = test system: SW-620 colon
[29] = test system: OVCAR-5 ovarian
[30] = test system: BT-549 breast
[31] = test system: M14 melanoma
[32] = test system: HL-60(TB) leukemia
[33] = test system: A549 NSCLC
[34] = test system: EKVX NSCLC
[35] = test system: HCT-15 colon
[36] = test system: SF-539 CNS
[37] = test system: CCRF-CEM leukemia
[38] = test system: SK-MEL-2 melanoma
[39] = test system: COLO 205 colon
[40] = test system: SNB-75 CNS
[41] = test system: SR leukemia
[42] = test system: T-47D breast
[43] = test system: RPMI-8226 leukemia
[44] = test system: MALME-3M melanoma
[45] = test system: SN12C renal
[46] = test system: NCI-H226 lung
[47] = test system: DU-145 prostate
[48] = test system: SF-295 CNS
[49] = test system: UO-31 renal
[50] = test system: UACC-62 melanoma
[51] = test system: U251 CNS
[52] = test system: HS 578T breast
[53] = test system: OVCAR-4 ovarian

For `COc1ccc(N2CCN(C3=C(Cl)C(=O)c4ncccc4C3=O)CC2)cc1`, the GI50 [1] was 13.8 µM, the TGI [1] was 29.1 µM and the GI50 [2] was 19.1 µM. The TGI [2] was 38 µM, the GI50 [3] was 3.25 µM and the TGI [3] was 11.6 µM. The GI50 [4] was 3.8 µM, the TGI [4] was 13.2 µM and the GI50 [5] was 1750 nM. The TGI [5] was 3.56 µM, the GI50 [6] was 2860 nM and the TGI [6] was 8.41 µM. It also gave a GI50 [7] of 3.03 µM, a TGI [7] of 12 µM and a GI50 [8] of 1490 nM. For the same molecule, the TGI [8] was 3.03 µM, the GI50 [9] was 19.2 µM and the TGI [9] was 50.1 µM. For the same molecule, the GI50 [10] was 18.4 µM, the TGI [10] was 34.7 µM and the GI50 [11] was 16.9 µM. For the same molecule, the TGI [11] was 32.9 µM, the GI50 [12] was 5.86 µM and the TGI [12] was 19.9 µM. For the same molecule, the GI50 [13] was 15.9 µM, the TGI [13] was 29.5 µM and the GI50 [14] was 12.8 µM. It also gave a TGI [14] of 25.5 µM, a GI50 [15] of 4.71 µM and a TGI [15] of 18.2 µM. The GI50 [16] was 1940 nM, the TGI [16] was 3.68 µM and the GI50 [17] was 4.87 µM. For the same molecule, the TGI [17] was 17.9 µM, the GI50 [18] was 4.72 µM and the TGI [18] was 17.1 µM. The GI50 [19] was 1920 nM, the TGI [19] was 3.85 µM and the GI50 [20] was 11.7 µM. It also gave a TGI [20] of 26.5 µM, a GI50 [21] of 12.2 µM and a TGI [21] of 25.2 µM. It also gave a GI50 [22] of 1660 nM, a TGI [22] of 3.26 µM and a GI50 [23] of 6.74 µM. It also gave a TGI [23] of 28.6 µM, a GI50 [24] of 1780 nM and a TGI [24] of 3.37 µM. The GI50 [25] was 15 µM, the TGI [25] was 29.1 µM and the GI50 [26] was 2610 nM. For the same molecule, the TGI [26] was 8.37 µM, the GI50 [27] was 4.11 µM and the TGI [27] was 11.6 µM. For the same molecule, the GI50 [28] was 1630 nM, the TGI [28] was 3.79 µM and the GI50 [29] was 16.2 µM. The TGI [29] was 30.3 µM, the GI50 [30] was 4.23 µM and the TGI [30] was 14.1 µM. For the same molecule, the GI50 [31] was 3.04 µM, the TGI [31] was 10.5 µM and the GI50 [32] was 1480 nM. The TGI [32] was 4.46 µM, the GI50 [33] was 15.9 µM and the TGI [33] was 35.2 µM. For the same molecule, the GI50 [34] was 2450 nM, the TGI [34] was 7.05 µM and the GI50 [35] was 2660 nM. For the same molecule, the TGI [35] was 11.3 µM, the GI50 [36] was 7.66 µM and the TGI [36] was 21.2 µM. For the same molecule, the GI50 [37] was 2800 nM, the TGI [37] was > 100 µM and the GI50 [38] was 12 µM. For the same molecule, the TGI [38] was 25.4 µM, the GI50 [39] was 2010 nM and the TGI [39] was 4.04 µM. For the same molecule, the GI50 [40] was 14.3 µM, the TGI [40] was 28.8 µM and the GI50 [41] was 2270 nM. For the same molecule, the TGI [41] was 6.59 µM, the GI50 [42] was 1780 nM and the TGI [42] was 4.26 µM. The GI50 [43] was 2690 nM, the TGI [43] was 7.32 µM and the GI50 [44] was 2060 nM. It also gave a TGI [44] of 6.05 µM, a GI50 [45] of 11.1 µM and a TGI [45] of 25.6 µM. The GI50 [46] was 16.2 µM, the TGI [46] was 35.9 µM and the GI50 [47] was 5.93 µM. The TGI [47] was 18.4 µM, the GI50 [48] was 13.9 µM and the TGI [48] was 28.3 µM. For the same molecule, the GI50 [49] was 2000 nM, the TGI [49] was 6.83 µM and the GI50 [50] was 5.99 µM. For the same molecule, the TGI [50] was 19.3 µM, the GI50 [51] was 10.7 µM and the TGI [51] was 24.1 µM. It also gave a GI50 [52] of 14.1 µM, a TGI [52] of 39 µM and a GI50 [53] of 2180 nM. For the same molecule, the TGI [53] was 5.36 µM.

Source: PubChem BioAssay (NCI)
